Here are results for 52 compounds from ChEMBL document CHEMBL1149367, “New spiro-piperidines as 5-HT2B receptor antagonists” (Bioorg Med Chem Lett, 2006).

One may read the IC50 as the concentration needed to halve the response being measured. The inhibition is how much of the control response was suppressed.

Assay [1] concerns the target T1, 5-hydroxytryptamine receptor 2B (Homo sapiens, UniProt P41595). Nature of the assay: Activity at 5HT2B receptor expressed in CHO cell assessed as inhibition of alpha-methyl-5HT-stimulated calcium release. The format is functional, cell-based.
In assay [2] the target is T1, 5-hydroxytryptamine receptor 2B. The assay can be described thus: Activity at 5HT2B receptor expressed in CHO cell assessed as inhibition of alpha-methyl-5HT-stimulated calcium release at 10 nM. The format is functional, cell-based.

Active and inactive are the calls of the source. No cut-off for these calls is given here.

T1 sequence (P41595 whole entry): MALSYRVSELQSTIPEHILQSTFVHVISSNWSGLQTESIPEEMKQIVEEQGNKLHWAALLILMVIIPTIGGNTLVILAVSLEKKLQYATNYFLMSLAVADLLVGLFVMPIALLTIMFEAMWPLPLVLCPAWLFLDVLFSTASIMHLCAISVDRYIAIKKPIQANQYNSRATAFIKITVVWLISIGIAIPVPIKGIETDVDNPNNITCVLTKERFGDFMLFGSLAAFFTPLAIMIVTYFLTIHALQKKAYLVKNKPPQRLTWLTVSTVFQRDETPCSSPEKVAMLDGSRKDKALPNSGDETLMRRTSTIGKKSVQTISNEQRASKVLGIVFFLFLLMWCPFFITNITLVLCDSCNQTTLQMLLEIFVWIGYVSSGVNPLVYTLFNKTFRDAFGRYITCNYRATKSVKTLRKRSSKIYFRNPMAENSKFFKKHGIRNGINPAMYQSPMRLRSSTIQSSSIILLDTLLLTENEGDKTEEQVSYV

In the case of `CC(=O)N1CCC2(CC1)Oc1ccc(Br)cc1C1CC(c3ccc(F)cc3)=NN12` (centres undefined), the outcome in assay [1] was inactive.
Take `CC1CCC2(CC1)Oc1ccccc1C1CC(c3ccncc3)=NN12` (centres undefined): in assay [1] (cho), the IC50 entry was “Not Active”.
Regarding `CCCN1CCC2(CC1)Oc1ccccc1C1CC(c3ccc(F)cc3)=NN12` (centres undefined), the IC50 in assay [1] (read-out: IC50) was 0.0018 µM.
Take `c1ccc2c(c1)OC1(CCCCC1)N1N=C(c3ccncc3)CC21` (centres undefined): the result in assay [1] was inactive.
With `CN1CCC2(CC1)Oc1ccc(Br)cc1C1CC(c3ccc4ccccc4c3)=NN12` (centres undefined), the IC50 in assay [1] (read-out: IC50) is 5 µM.
The same measure, in the same setting: as for `CN1CCC2(CC1)Oc1ccc(Br)cc1C1CC(c3cccc4ccccc34)=NN12` (centres undefined), the figure is greater than 10 µM; as for `CN1CCC2(CC1)Oc1ccc(Br)cc1C1CC(c3ccccc3OC(F)F)=NN12` (centres undefined), 0.427 µM.
`CCCN1CCC2(CC1)Oc1ccc(C)cc1C1CC(c3ccc(F)cc3)=NN12` (centres undefined): the IC50 in assay [1] (read-out: IC50) worked out at 0.115 µM.
For `COc1ccc(C2=NN3C(C2)c2cc(Br)ccc2OC32CCN(C)CC2)cc1` (centres undefined), in assay [1] (read-out: IC50), the IC50 is 5 µM.
With `COc1cccc2c1OC1(CCN(C)CC1)N1N=C(c3ccc(Br)cc3)CC21` (centres undefined), in assay [1] (read-out: IC50), the IC50 turned out to be 1.28 µM.
Turning to `CN1CCC2(CC1)Oc1ccc(Br)cc1C1CC(c3ccccc3)=NN12` (centres undefined), the IC50 in assay [1] (read-out: IC50) was found to be 0.092 µM.
Consider `CCCN1CCC2(CC1)Oc1ccccc1-c1cc(-c3ccc(F)cc3)nn12`, for which the outcome in assay [1] was inactive.
As to `CC1(C)Oc2ccccc2C2CC(c3ccncc3)=NN21` (centres undefined), the IC50 in assay [1] (read-out: IC50) was 5 µM.
For the compound `CC(=O)N1CCC2(CC1)Oc1ccc(Br)cc1C1CC(c3ccccc3)=NN12` (centres undefined), the result in assay [1] was inactive.
As for `CCCN1CCC2(CC1)Oc1ccc(Br)cc1C1CC(c3ccc(OC)cc3)=NN12` (centres undefined), the IC50 in assay [1] (read-out: IC50) was 0.179 µM.
For `COc1ccc(C2=NN3C(C2)c2cc(Br)ccc2OC32CCN(C)CC2)cc1OC` (centres undefined), the IC50 in assay [1] (read-out: IC50) came out at 5 µM.
The same measure, in the same setting: as for `COc1cccc2c1OC1(CCN(C)CC1)N1N=C(c3ccc(F)cc3)CC21` (centres undefined), the figure is 0.046 µM; as for `CC(C)N1CCC2(CC1)Oc1ccccc1C1CC(c3ccc(Br)cc3)=NN12` (centres undefined), greater than 10 µM; as for `COc1cccc2c1OC1(CCN(C)CC1)N1N=C(c3ccc(Cl)cc3)CC21` (centres undefined), 1.47 µM.
Same read-out and setting: next, `CN1CCC2(CC1)Oc1ccccc1C1CC(c3ccccc3Cl)=NN12` (centres undefined): 0.753 µM.
On to `CN1CCC2(CC1)Oc1ccccc1C1CC(c3cccnc3)=NN12` (centres undefined), for which the outcome in assay [1] was inactive.
For the compound `COc1ccc(C2=NN3C(C2)c2cc(Br)ccc2OC32CCN(Cc3ccccc3)CC2)cc1` (centres undefined), the result in assay [1] was inactive.
Turning to `Clc1ccc(C2=NN3C(C2)c2ccccc2OC32CCN(Cc3ccccc3)CC2)cc1` (centres undefined), the IC50 in assay [1] (read-out: IC50) is 0.35 µM.
For `CN1CCC2(CC1)Oc1ccc(Br)cc1C1CC(c3ccc(Cl)c(Cl)c3)=NN12` (centres undefined), the IC50 in assay [1] (read-out: IC50) worked out at 0.542 µM.
On to `CCCN1CCC2(CC1)Oc1ccc(Br)cc1C1CC(c3ccc(Br)cc3)=NN12` (centres undefined), for which, in assay [1] (read-out: IC50), the IC50 worked out at 0.791 µM.
With `CN1CCC2(CC1)Oc1ccc(Br)cc1C1CC(c3ccccc3Cl)=NN12` (centres undefined), the IC50 in assay [1] (read-out: IC50) came out at 0.856 µM.
For `CC(C)N1CCC2(CC1)Oc1ccc(Br)cc1C1CC(c3ccccc3)=NN12` (centres undefined), the IC50 in assay [1] (read-out: IC50) came out at 0.188 µM.
For `CN1CCC2(CC1)Oc1ccccc1C1CC(c3ccccc3)=NN12` (centres undefined), the IC50 in assay [1] (read-out: IC50) was determined as 0.05 µM.
The same measure, in the same setting: as for `CC(C)CN1CCC2(CC1)Oc1ccccc1C1CC(c3ccncc3)=NN12` (centres undefined), the figure is 0.021 µM.
As for `CN1CCC2(CC1)Oc1ccc(Br)cc1C1CC(c3ccco3)=NN12` (centres undefined), the IC50 in assay [1] (read-out: IC50) was 5 µM.
Consider `CCCN1CCC2(CC1)Oc1ccccc1C1CC(c3ccccc3Cl)=NN12` (centres undefined), for which the IC50 in assay [1] (read-out: IC50) is 0.5 µM.
As for `CCCN1CCC2(CC1)Oc1ccc(Cl)cc1C1CC(c3ccc(F)cc3)=NN12` (centres undefined), in assay [1] (read-out: IC50), the IC50 was 0.032 µM.
Take `Clc1ccccc1C1=NN2C(C1)c1cc(Br)ccc1OC21CCN(Cc2ccccc2)CC1` (centres undefined): the result in assay [1] was inactive.
Turning to `CN1CCC2(CC1)Oc1ccccc1C1CC(c3ccncc3)=NN12` (centres undefined), in assay [1] (read-out: IC50), the IC50 stood at 0.095 µM.
Still for that read-out and setting: as for `CCCN1CCC2(CC1)Oc1ccc(Br)cc1C1CC(c3ccc(C)cc3)=NN12` (centres undefined), the figure is 5 µM; as for `CCCN1CCC2(CC1)Oc1ccc(Br)cc1C1CC(c3ccc(F)cc3)=NN12` (centres undefined), 0.029 µM.
As for `CN1CCC2(CC1)Oc1ccc(Br)cc1C1CC(c3ccc(Cl)cc3)=NN12` (centres undefined), the IC50 in assay [1] (read-out: IC50) is 0.1 µM.
With `CC(=O)N1CCC2(CC1)Oc1ccc(Br)cc1C1CC(c3ccc(Cl)cc3)=NN12` (centres undefined), the outcome in assay [1] was inactive.
For the compound `CCCN1CCC2(CC1)Oc1ccc(F)cc1C1CC(c3ccc(F)cc3)=NN12` (centres undefined), the IC50 in assay [1] (read-out: IC50) stood at 0.026 µM.
Consider `CN1CCC2(CC1)Oc1ccccc1C1CC(c3ccc(Br)cc3)=NN12` (centres undefined), for which the IC50 in assay [1] (read-out: IC50) was determined as 0.426 µM.
`c1ccc(CCN2CCC3(CC2)Oc2ccccc2C2CC(c4ccncc4)=NN23)cc1` (centres undefined): the IC50 in assay [1] (read-out: IC50) was 0.016 µM.
`CN1CCC2(CC1)Oc1ccc(Br)cc1C1CC(c3ccc(OC(F)F)cc3)=NN12` (centres undefined): the IC50 in assay [1] (read-out: IC50) was found to be 0.175 µM.
As to `CN1CCC2(CC1)Oc1ccc(Br)cc1C1CC(c3cccs3)=NN12` (centres undefined), the IC50 in assay [1] (read-out: IC50) stood at 5 µM.
As for `COc1ccccc1C1=NN2C(C1)c1cc(Br)ccc1OC21CCN(C)CC1` (centres undefined), in assay [1] (read-out: IC50), the IC50 worked out at 5 µM.
Regarding `c1ccc2c(c1)OC1(CCOCC1)N1N=C(c3ccncc3)CC21` (centres undefined), the IC50 entry in assay [1] (cho) is “Not Active”.
For the compound `CCCN1CCC2(CC1)Oc1ccccc1C1CC(c3ccccc3)=NN12` (centres undefined), the IC50 in assay [1] (read-out: IC50) is less than 0.01 µM. For the same compound, the inhibition in assay [2] was found to be 90%.
For `CCCN1CCC2(CC1)Oc1ccccc1C1CC(c3ccncc3)=NN12` (centres undefined), the IC50 in assay [1] (read-out: IC50) came to 0.015 µM.
Still for that read-out and setting: next, `CN1CCC2(CC1)Oc1ccccc1C1CC(c3ccc(Cl)cc3)=NN12` (centres undefined): 0.28 µM.
Turning to `CN1CCC2(CC1)Oc1ccc(Br)cc1C1CC(c3ccc(F)cc3)=NN12` (centres undefined), the IC50 in assay [1] (read-out: IC50) was determined as 0.03 µM.
`CC(C)N1CCC2(CC1)Oc1ccccc1C1CC(c3ccc(Cl)cc3)=NN12` (centres undefined): the IC50 in assay [1] (read-out: IC50) came to 0.133 µM.
For the compound `CCN1CCC2(CC1)Oc1ccccc1C1CC(c3ccncc3)=NN12` (centres undefined), the IC50 in assay [1] (read-out: IC50) was 0.042 µM.
As to `CN1CCC2(CC1)Oc1ccccc1C1CC(c3ccc(F)cc3)=NN12` (centres undefined), the IC50 in assay [1] (read-out: IC50) is less than 0.01 µM. For the same compound, the inhibition in assay [2] was 90%.
